Patent US12129265B2, “Therapeutic agents and uses thereof” (Ankh Life Sciences Limited, priority 2020, dated 2024)
Values after ≈ are worked out from the molar mass of the structure shown. Like-named read-outs stand apart in the source and are kept apart here. Each block holds one compound with its values, some of them ahead of it.

What was measured:
[1] = system: Human Myeloma, Human Lymphoma, Solid Human tumor and Jeko-1 tumor cell lines; test: CellTiter-Glo in vitro cell proliferation assay, Example 8, whole panel; type: cell-based; details: for IC50 values compared with the monoharmaline 518F014 compound: 72 hours, cell lines of Table 14
Description: (§1) In this Example, in vitro cell proliferation assays were performed using: (1) Human Myeloma tumor cell lines; (2) Human Lymphoma tumor cell lines; (3) Solid Human tumor cell lines; and (4) Parental, Lenalidomide resistant and Bortezomib resistant Jeko-1 Mantle cell Lymphoma tumor cell lines. The compounds tested were three diharmaline compounds, namely the 518B562 (or simply 562), 560, and 561 compounds. In addition, a monoharmaline product designated as 518F014 was also tested. This monoharmaline product had the following structure:
(§2) Each proliferation assay was carried out as follows. The test cells were plated in growth media using a 384-well microtiter plate at 50 μL volume. The cells were incubated for 24 hours at 37° C. in a humidified incubator. After 24 hours of incubation, the test compounds were added to the test wells in DSMO solvent, at concentrations ranging from 0.0075-100 μM. Control wells received equal volumes of DSMO, without compound. Following drugging, the cells were incubated for 72 hours at 37° C. in a humidified incubator. After this exposure, 100 μL of a 1:1 mixture of sterile water and CellTiter-Glo® reagent (Promega) was added to each well. The plates were then incubated for 60 minutes at room temperature, followed by recording the luminescence value of each well using a luminometer as a measure of cell proliferation.

RXF-393 cells = test: CellTiter-Glo in vitro cell proliferation assay, Example 8; type: cell-based; details: Homo sapiens
Description: as §1, §2

[2] = system: Jeko-1 Bortezomib resistant cells; test: as above; type: cell-based; details: Homo sapiens, Mantle Cell Lymphoma, 72 hours
Description: as §1, §2

N87 cells = test: as above; type: cell-based; details: Homo sapiens, N87, Gastric
Description: as §1, §2

[3] = system: Jeko-1 Lenalidomide resistant cells; test: as above; type: cell-based; details: Homo sapiens, Mantle Cell Lymphoma, 72 hours
Description: as §1, §2

SU-DHL-6 cells = test: as above; type: cell-based; details: Homo sapiens, SU-DHL-6, Diffuse Large B-Cell Lymphoma
Description: as §1, §2

SU-DHL-4 cells = test: as above; type: cell-based; details: Homo sapiens, SU-DHL-4, Diffuse Large B-Cell Lymphoma
Description: as §1, §2

Jeko-1 Parental cells = test: as above; type: cell-based; details: Homo sapiens, Mantle Cell Lymphoma, 72 hours
Description: as §1, §2

S2-007 cells = test: Cell colony formation assay, Example 16; type: cell-based, human; details: 4 μg and 6 μg, 24, 48, and 72 hours, FIG. 123
Description: (§3) In this example, the 560 and 562 compounds of Examples 12 and 14, respectively, were tested using cell colony formation assays. 500 viable S2-007 and MiaCaPa-2 cells were plated in six-well dishes and allowed to grow for 24 hours. The cells were then incubated in the presence or absence of the 560 and 562 compounds for 72 hours. The compound-containing media were then removed, and the cells were washed in PBS and incubated for an additional 10 days in complete media. The resultant colonies were then washed in PBS and fixed using 10% formalin for 10 minutes at room temperature, followed by washing with PBS and staining with Crystal Violet. The colonies of the control and compound-supplemented assays were then counted and compared.

MiaPaCa-2 cells = test: Cell colony formation assay, Example 16; type: cell-based, human
Description: as §3

ASPC-1 cells = test: CellTiter-Glo in vitro cell proliferation assay, Example 8; type: cell-based, Human; details: Homo sapiens, ASPC1, ASPC-1, Pancreatic
Procedure, shortened: (§4)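 72 h continuous exposure, 37 °C, humidified; conc. 0.0075–100 μM (DMSO); CellTiter-Glo luminescence, 60 min RT incubation before read.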

H1650 (EGFR mut) cells = test: as above; type: cell-based, Human; details: Homo sapiens
Procedure, shortened: as §4

[4] = Solubility observation on acid addition; type: physicochemical; details: addition of an acid such as hydrochloric acid to reduce the pH of the product
Description: The 518B562 compound was prepared by mixing together particulate harmaline and vanillin at a weight ratio of about 2:1 (vanillin:harmaline), followed by adding ethanol to a final concentration of the reactions of from about 10-100 mg/mL. This mixture is then allowed to sit for approximately 3 days at 50° C. A bluish solid forms, which is filtered and washed with methanol, and recovered.

[5] = system: gene expression in S2-007 human pancreatic cancer cells; test: RNA-Seq clustergram/heat map of cancer stem cell markers, Example 11; type: cell-based; details: 5 micro-g/mL
Description: In this Example, a clustergram/heat map of RNA sequences for cancer stem cell (CSC) markers was performed before and after treatment of S2-007 human pancreatic cancer cells with 518B562. This experiment was conducted using a Whole Transcriptome Shotgun Sequence (WTSS), followed by bioinformatics data analysis of CSC markers. An RNA-Seq/heat map was generated to obtain a genome-wide gene expression profile of the pancreatic cancer cells.
One sample of the pancreatic cancer cell line was untreated, while an identical sample was treated with 5 micro-g/mL of 518B562. Comparative RNA sequences were performed on the samples using an Illumina HISeq 2500 sequencer at a 100 bp single read resolution. The sequence readings were mapped to the human genome (assembly GRCh38.re177) using the STAR software (Dobin et al. 2012). Transcript abundance estimates were generated using the Cufflinks software (Trapnell et al. 2010) and differential gene expression estimates were calculated using the Cuffdiff software (Trapnell et al. 2013). RNA-Seq generated around […], of which between 97.2% and 98.3% of the reads mapped to the reference genome.

[6] = system: Mia-PaCa2 pancreatic cancer cells; test: Proliferation assay, Example 10; type: cell-based, human
Description: (§5) In this Example, pancreatic cancer cells (S2-007 and Mia-PaCa2) were treated with the previously described compound 518B562 at different times and concentrations, followed by generation of proliferation assays using the techniques described above. […] After 72 hours of treatment, the IC50 values of the compound against S2-007 and Mia-PaCa2 cells was determined as 3 μg/mL and 5 μg/mL, respectively.

[7] = system: S2-007 pancreatic cancer cells; test: Proliferation assay, Example 10; type: cell-based, human
Description: as §5

[8] = RXF-393, Renal, 72 hours, read-out: Mean IC50
[9] = NCI-H1650, Non Small Cell Lung, 72 hours, read-out: Mean IC50
[10] = doses of 1-25 μg/mL, time-dependent, 24-72 hours

IC50 values compared with the monoharmaline 518F014 compound [1]: significantly lower IC50 values
IC50 (SU-DHL-6 cells; 72 hours, read-out: Mean IC50): 3520 nM
IC50 (SU-DHL-4 cells; 72 hours, read-out: Mean IC50): 3680 nM
IC50 (ASPC-1 cells; 72 hours, read-out: Mean IC50): 3620 nM
IC50 (H1650 (EGFR mut) cells; [9]): 2950 nM
SMILES: COc1ccc2c3c([nH]c2c1)C(CC(CC1=NCCc2c1[nH]c1cc(OC)ccc21)c1ccccc1)=NCC3 [compound 560]
IC50 (RXF-393 cells; [8]): 5.4 µM
IC50 [2]: 4.08 µM
IC50 (N87 cells; 72 hours, read-out: Mean IC50): 3720 nM
IC50 [3]: 5.07 µM
IC50 (Jeko-1 Parental cells): 4.7 µM
colony formation (S2-007 cells): significantly disrupted colony formation, particularly at the 6 μg level of use
colony formation (MiaPaCa-2 cells; 3 μg and 5 μg, 24, 48, and 72 hours, FIG. 124): significantly disrupted colony formation at both levels of use

solubility [4]: increased the solubility thereof
IC50 values compared with the monoharmaline 518F014 compound [1]: significantly lower IC50 values
IC50 (SU-DHL-6 cells; 72 hours, read-out: Mean IC50): 819 nM
IC50 (SU-DHL-4 cells; 72 hours, read-out: Mean IC50): 1810 nM
IC50 ([6]; Homo sapiens, MIA PaCa-2, after 72 hours of treatment): 5 µg/mL (≈ 8.89 µM)
IC50 ([7]; Homo sapiens, Pancreatic cancer cell, after 72 hours of treatment): 3 µg/mL (≈ 5.33 µM)
IC50 (ASPC-1 cells; 72 hours, read-out: Mean IC50): 2150 nM
IC50 (H1650 (EGFR mut) cells; [9]): 2300 nM
SMILES: COc1ccc2c3c([nH]c2c1)C(CC(CC1=NCCc2c1[nH]c1cc(OC)ccc21)c1ccc(O)c(OC)c1)=NCC3 [compound 562]
angiogenesis markers [OXTR, SYCP2, CRHR1, SPEG] [5]: down-regulated
anti-apoptotic markers [TUG1, FABP1, PI3, DOKS] [5]: down-regulated
anti-proliferative markers [NRP1, ATF2A, CYP1b1, ALPP, DEPTOR, MT1F] [5]: up-regulated
apoptotic markers [ICAM5, WNK4, ALPP, LTRC26, SHBG, MT1X] [5]: up-regulated
proliferation signaling markers [FOXj1, SPP1, C3] [5]: down-regulated
IC50 (RXF-393 cells; [8]): 1.79 µM
IC50 [2]: 4.81 µM
IC50 (N87 cells; 72 hours, read-out: Mean IC50): 1850 nM
IC50 [3]: 6.19 µM
IC50 (Jeko-1 Parental cells): 4.41 µM
colony formation (MiaPaCa-2 cells; 3 μg, 7 μg, 10 μg, and 12 μg, 24, 48, and 72 hours, FIG. 127): significantly disrupted colony formation, particularly at the higher levels of use
inhibition of proliferation [6, 10]: significantly inhibited the proliferation
inhibition of proliferation [7, 10]: significantly inhibited the proliferation

IC50 (SU-DHL-6 cells; Example 24, read-out: Mean): 2.36 µg/mL
IC50 (SU-DHL-6 cells; Example 24, read-out: Trial A): 2.48 µg/mL
IC50 (SU-DHL-6 cells; Example 24, read-out: Trial B): 2.23 µg/mL
IC50 (SU-DHL-4 cells; Example 24, read-out: Mean): 2.73 µg/mL
IC50 (SU-DHL-4 cells; Example 24, read-out: Trial A): 2.77 µg/mL
IC50 (SU-DHL-4 cells; Example 24, read-out: Trial B): 2.7 µg/mL
IC50 (ASPC-1 cells; Example 24, read-out: Mean): 3.47 µg/mL
IC50 (ASPC-1 cells; Example 24, read-out: Trial A): 2.94 µg/mL
IC50 (ASPC-1 cells; Example 24, read-out: Trial B): 3.99 µg/mL
IC50 (H1650 (EGFR mut) cells; NCI-H1650, Example 24, Non Small Cell Lung, read-out: Mean): 2.58 µg/mL
IC50 (H1650 (EGFR mut) cells; NCI-H1650, Example 24, Non Small Cell Lung, read-out: Trial A): 2.61 µg/mL
IC50 (H1650 (EGFR mut) cells; NCI-H1650, Example 24, Non Small Cell Lung, read-out: Trial B): 2.55 µg/mL
SMILES: COc1ccc2c3c([nH]c2c1)C(CC(CC1=NCCc2c1[nH]c1cc(OC)ccc21)c1cccc(Oc2ccccc2)c1)=NCC3 [compound 594, diharmaline 3-phenoxybenzaldehyde]
effectiveness in cell proliferation assays ([1]; cell lines of Table 16): effective against a wide variety of cancer cells
IC50 (RXF-393 cells; Example 24, RXF-393, RCC, read-out: Mean): 3.16 µg/mL
IC50 (RXF-393 cells; Example 24, RXF-393, RCC, read-out: Trial A): 3.16 µg/mL
IC50 (RXF-393 cells; Example 24, RXF-393, RCC, read-out: Trial B): 3.16 µg/mL
IC50 (N87 cells; Example 24, read-out: Mean): 4.26 µg/mL
IC50 (N87 cells; Example 24, read-out: Trial A): 3.48 µg/mL
IC50 (N87 cells; Example 24, read-out: Trial B): 5.04 µg/mL
